According to patent publication US11040981B2, “Pyrrolotriazine compounds and methods of inhibiting TAM kinases” (Syros Pharmaceuticals, Inc., priority 2017, dated 2021):
pIC50: −log10 of the molar value.

Assays:
[1] = target: T1, MERTK (Homo sapiens, UniProt Q12866); test: TR-FRET kinase activity assay, MERTK; format: biochemical; conditions: for pIC50: TR-FRET activity assay, ATP at Km, 60 minutes, read-out: Mer IC50
T1 sequence (Q12866 21-999): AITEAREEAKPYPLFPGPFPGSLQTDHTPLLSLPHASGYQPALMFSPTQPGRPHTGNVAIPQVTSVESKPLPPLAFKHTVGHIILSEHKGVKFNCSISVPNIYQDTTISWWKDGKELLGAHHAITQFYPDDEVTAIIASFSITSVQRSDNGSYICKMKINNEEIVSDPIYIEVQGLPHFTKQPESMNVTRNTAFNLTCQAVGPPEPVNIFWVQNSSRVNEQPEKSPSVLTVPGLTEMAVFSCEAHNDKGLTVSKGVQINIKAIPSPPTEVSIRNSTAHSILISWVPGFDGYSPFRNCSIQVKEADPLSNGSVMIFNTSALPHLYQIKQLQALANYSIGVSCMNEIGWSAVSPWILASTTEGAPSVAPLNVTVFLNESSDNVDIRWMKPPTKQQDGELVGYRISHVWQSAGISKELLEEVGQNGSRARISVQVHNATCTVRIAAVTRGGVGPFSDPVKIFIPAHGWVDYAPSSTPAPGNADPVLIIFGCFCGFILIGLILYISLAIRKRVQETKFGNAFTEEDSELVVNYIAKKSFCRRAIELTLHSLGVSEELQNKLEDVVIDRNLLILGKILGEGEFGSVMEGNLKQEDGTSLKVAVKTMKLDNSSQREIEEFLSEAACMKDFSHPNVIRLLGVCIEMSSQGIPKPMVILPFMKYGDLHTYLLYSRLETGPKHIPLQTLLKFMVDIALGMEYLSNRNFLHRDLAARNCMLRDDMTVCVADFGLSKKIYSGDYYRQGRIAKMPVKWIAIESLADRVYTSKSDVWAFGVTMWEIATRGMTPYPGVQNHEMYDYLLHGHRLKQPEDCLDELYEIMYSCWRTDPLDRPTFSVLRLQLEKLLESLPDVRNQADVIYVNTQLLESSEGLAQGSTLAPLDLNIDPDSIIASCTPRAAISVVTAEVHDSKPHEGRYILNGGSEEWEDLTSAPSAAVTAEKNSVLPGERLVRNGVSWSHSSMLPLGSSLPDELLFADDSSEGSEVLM
Method in brief: (§1)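 IC50 reflects the drop in TR-FRET between Eu anti-phosphotyrosine antibody and labelled peptide after a 60-minute room-temperature reaction. Buffer was 50 mM HEPES pH 7.5 with 10 mM MgCl2, 1 mM EGTA, 0.01% Brij 35 and 1 mM DTT, with ATP at Km per enzyme and EDTA quench.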

[2] = target: T2, TYRO3 (Homo sapiens, UniProt Q06418); test: TR-FRET kinase activity assay, TYRO3; format: biochemical; conditions: ATP at Km, 60 minutes
T2 sequence (Q06418 41-890): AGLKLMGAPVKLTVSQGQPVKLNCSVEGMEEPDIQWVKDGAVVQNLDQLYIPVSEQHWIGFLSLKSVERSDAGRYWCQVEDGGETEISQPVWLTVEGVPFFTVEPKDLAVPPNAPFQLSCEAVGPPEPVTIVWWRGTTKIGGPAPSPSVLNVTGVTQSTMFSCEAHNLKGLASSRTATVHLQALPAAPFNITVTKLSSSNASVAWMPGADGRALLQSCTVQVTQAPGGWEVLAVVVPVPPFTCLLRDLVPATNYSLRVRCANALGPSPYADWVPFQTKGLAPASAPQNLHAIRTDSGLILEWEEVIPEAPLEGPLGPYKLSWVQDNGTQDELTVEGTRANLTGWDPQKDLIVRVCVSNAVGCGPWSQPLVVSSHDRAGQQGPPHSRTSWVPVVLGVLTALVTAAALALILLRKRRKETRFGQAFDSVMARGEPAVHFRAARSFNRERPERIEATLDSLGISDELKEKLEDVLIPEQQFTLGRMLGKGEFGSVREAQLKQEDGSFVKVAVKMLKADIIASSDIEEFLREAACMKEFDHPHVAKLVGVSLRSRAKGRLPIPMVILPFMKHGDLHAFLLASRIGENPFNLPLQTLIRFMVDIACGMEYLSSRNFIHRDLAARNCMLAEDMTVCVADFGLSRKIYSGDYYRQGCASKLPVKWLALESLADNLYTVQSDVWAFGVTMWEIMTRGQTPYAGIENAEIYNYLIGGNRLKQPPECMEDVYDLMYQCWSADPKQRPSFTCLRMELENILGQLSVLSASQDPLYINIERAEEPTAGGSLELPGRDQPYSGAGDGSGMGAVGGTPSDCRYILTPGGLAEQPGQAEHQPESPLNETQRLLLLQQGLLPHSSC
Method in brief: as §1

[3] = ratio of Mer to FLT3: FLT3 IC50/Mer IC50
[4] = ratio calculated as FLT3 IC50/Mer IC50

Row | SMILES | pIC50 [1] | pIC50 [2] | FLT3/Mer ratio (FLT3 IC50/Mer IC50) [1, 4] | FLT3/Mer ratio (FLT3 IC50/Mer IC50) [1, 3]
1 | COC[C@H](C)Nc1ncc2c(-c3ccc([C@H](C)N4CCCC4)cc3)cc([C@H]3CC[C@H](O)CC3)n2n1 [Compound 165] | ≥ 7.00 | ≥ 7.00 |  | ++ (“++” represents a ratio of between 10 and 100)
2 | COCC(C)Nc1ncc2c(-c3ccc(C(C)N4CCCC4)cc3)cc(C3CCC(O)CC3)n2n1 (stereo not drawn) [Compound 166] | ≥ 7.00 | ≥ 7.00 |  | ++ (“++” represents a ratio of between 10 and 100)
3 | COC[C@H](C)Nc1ncc2c(-c3ccc(C(=O)N4CCN(C)CC4)cc3)cc([C@H]3CC[C@H](O)CC3)n2n1 [Compound 144] | ≥ 7.00 | ≥ 7.00 |  | +++ (“+++” represents a ratio of >100)
4 | COC[C@H](C)Nc1ncc2c(-c3cnn(C4CCOCC4)c3)cc([C@H]3CC[C@H](O)CC3)n2n1 [Compound 151] | ≥ 7.00 | ≥ 7.00 |  | +++ (“+++” represents a ratio of >100)
5 | COC[C@H](C)N(C)c1ncc2c(-c3ccnc(C)c3)cc([C@H]3CC[C@H](OC)CC3)n2n1 [Compound 176, 7-((trans)-4-methoxycyclohexyl)-N-((S)-1-methoxypropan-2-yl)-N-methyl-5-(2-methylpyridin-4-yl)pyrrolo[2,1-f][1,2,4]triazin-2-amine] | 5.00 to 6.00 | 5.00 to 6.00 |  | + (“+” represents a ratio of >2.0 and <10)
6 | COC[C@H](C)Nc1ncc2c(-c3ccnc(N4CC(C)(O)C4)c3)cc(C3CCC(O)CC3)n2n1 (stereo partly drawn) [Compound 632] | ≥ 7.00 | ≥ 7.00 | +++ (“+++” represents a ratio of >100) | 
7 | COC[C@H](C)Nc1ncc2c(-c3ccc(C4(N5CCOCC5)CC4)cc3)cc([C@H]3CC[C@H](O)CC3)n2n1 [Compound 184] | ≥ 7.00 | ≥ 7.00 |  | ++ (“++” represents a ratio of between 10 and 100)
8 | COC[C@H](C)Nc1ncc2c(-c3cnn(C(C)(C)C(=O)N4CCC(C)(O)C4)c3)cc([C@H]3CC[C@H](O)CC3)n2n1 (stereo partly drawn) [Compound 620] | ≥ 7.00 | ≥ 7.00 | +++ (“+++” represents a ratio of >100) | 

Further lines, with some results ahead:

Row | pIC50 [1] | pIC50 [2] | FLT3/Mer ratio (FLT3 IC50/Mer IC50) [1, 4] | SMILES | FLT3/Mer ratio (FLT3 IC50/Mer IC50) [1, 3]
9 | ≥ 7.00 | ≥ 7.00 |  | CNC(=O)c1ccc(-c2cc([C@H]3CC[C@H](O)CC3)n3nc(N[C@@H](C)COC)ncc23)cn1 [Compound 147] | +++ (“+++” represents a ratio of >100)
10 | ≥ 7.00 | ≥ 7.00 | +++ (“+++” represents a ratio of >100) | COC[C@H](C)Nc1ncc2c(-c3cnn(C(C)(C)c4nnc(C(C)C)o4)c3)cc([C@H]3CC[C@H](O)CC3)n2n1 [Compound 600] | 
11 | ≥ 7.00 | ≥ 7.00 |  | COC[C@H](C)Nc1ncc2c(-c3ccnc(C)c3)cc([C@H]3CC[C@H](O)CC3)n2n1 [Compound 146] | +++ (“+++” represents a ratio of >100)
12 | ≥ 7.00 | ≥ 7.00 | +++ (“+++” represents a ratio of >100) | COCC(C)Nc1ncc2c(-c3ccc(C(C)(C)c4nnc(C)o4)s3)cc(C3CCC(O)CC3)n2n1 (stereo not drawn) [Compound 611] | 
13 | ≥ 7.00 | ≥ 7.00 | +++ (“+++” represents a ratio of >100) | CCC1(O)CCC(c2cc(-c3cnn(C4COC4)c3)c3cnc(NC(C)COC)nn23)CC1 (stereo not drawn) [Compound 615] | 
